The values below come from patent US20250250559A1, “METHOD TO ANALYZE AND OPTIMIZE GENE EDITING MODULES AND DELIVERY APPROACHES” (Hoffmann-La Roche Inc., priority 2016, published 2025).

Several values for one entry are separate records, joined by “and”; a condition that tells them apart may be missing. Identical values can stand only once.

Series [1] deals with DPH2 gene. The series can be described thus: PM resistant colony count after DPH2 gene editing. Type of series: cell-based, human. The conditions noted are these: DPH2 assay (integr. vs. k.o.); for # of PM resistant colonies (40,000 seeded cells): MCF7, individual samples A-D. Here is the method:
(§1) MCF7 cells (Brooks, et al. 1973) were originally obtained from ATCC (subsequently propagated in an in-house cell bank) and maintained in RPMI […] medium supplemented with 10% FCS, 2 mM L-Glutamine and penicillin/streptomycin at 37° C. and 85% humidity. For transfection of plasmids harboring gene-editing modules, 3,000,000 cells were seeded in a 10 cm diameter culture dish and cultivated at 37° C. and humidified 5% CO2. 24 h after seeding, cells were transfected with 20 μg total DNA using JetPEI (Polyplus) according to the manufacturer's protocol but with an N/P ratio of 6:1. Transfection efficiency was determined after 24 h by flow cytometry (FACS Calibur, BD biosciences) of cells that were transfected with a modified eGFP expression plasmid (Zhang, et al. 1996).
(§2) Plasmids encoding CRISPR/Cas9 gene-editing entities (i.e. knock-out and integration systems) against Dph1 (gRNA target sequence: […] (SEQ ID NO: 01) derived from RefSeq: NM_001383) and Dph2 (gRNA target sequence: […] (SEQ ID NO: 02) derived from RefSeq: NM_001039589, NM_001384), and scrambled control (gRNA sequence: […] (SEQ ID NO: 03)) were obtained from OriGene. This system comprises one plasmid expressing a ˜100 nt gRNA under control of a U6 promoter as well as Cas9 nuclease under control of a CMV promoter and a Donor plasmid with a promoter-less GFP/PM expression cassette flanked by homologous arms to the target gene (Dph1 or Dph2). Additional Dph1 gRNA sequence variants of different sizes (OriGene) […]
(§3) MCF7 cells which have all chromosomal copies of DPH1 or DPH2 inactivated are resistant to diphtheria toxin (Stahl, et al. 2015). Thus, occurrence and frequency of toxin resistant cells/colonies upon CRISPR/Cas inflicted gene inactivation provides a measure for efficiency of inactivation of all gene copies. Therefore, MCF/cells were transfected as described in Example 1 with (i) a GFP expression plasmid as transfection control, (ii) the CRISPR/Cas9 Dph1 or Dph2 knock-out/integration system and (iii) knock-out/integration entities containing a scrambled gRNA to determine Cas9 independent integration frequencies. After determination of transfection efficiency, cells were seeded in 6-well plates. For quantification of homozygous knock-out events by DT 20000 cells were seeded and for quantification of integration events by PM or both events 40000 cells were seeded. RPMI medium was exchanged by RPMI medium containing DT or PM or both toxins 3 days after cell seeding. Exchange of medium was repeated every 2-3 days until all dead cells were removed from the plates and actively growing colonies could be detected via microscopic inspection. Thereafter (between day 12 and day 14 after start of toxin exposure), cells were washed 3 times with PBS and subsequently stained with ice cold methylene blue (0.2% in 50% EtOH). Methylene blue solution was subsequently removed and the plates were carefully washed under running water. Finally, cell colonies were counted under the microscope with a 5 mm grid foil.
CRISPR/Cas module for targeted integration contains a puromycin (PM) resistance gene expression cassette without promoter to avoid transient expression. Thus, detection of integration of recombinant sequences into the genome was detected by determining sensitivity of cells towards PM. A concentration of […] PM (which quantitatively eliminates wildtype MCF7 cells) was applied to select MCF7 cells with stably integrated expression cassettes. PM-resistant colonies selected with the same procedure as described above for the DT selection and visualized and quantified (between 12 and 14 days after start of selection) in the same manner as described above for toxin resistant colonies. Number of PM resistant colonies obtained with non-target guide sequences (scrambled gRNA, FIG. 1) reflect the nonspecific integration background. […]

The test system of series [2] is DPH2 gene. Kind of series: DT resistant colony count after DPH2 gene editing. Type of series: cell-based, human. Conditions: DPH2 assay (integr. vs. k.o.). On the procedure: as §1, §2, §3

For “20 mer SpCas9 scRNA: Scrambled control gRNA GCACTACCAGAGCTAACTCA (SEQ ID NO: 03) with SpCas9 and donor plasmid [reference compound]”, the “# of PM resistant colonies (40,000 seeded cells) (unheaded second sub-column: mean)” value in the series with DPH2 gene [1] (MCF7) turned out to be 0.5. Moreover, the “# of PM resistant colonies (40,000 seeded cells)” value in the series on DPH2 gene [1] is 2 and 0 (3×); with DPH2 gene [1] (listed as 20 mer scRNA), 2 and 0 (3×). Further, in the series on DPH2 gene [2] (MCF7), the “# of DT resistant colonies (40,000 seeded cells) (unheaded second sub-column: mean)” value came out at 0. For the same substance, the “# of DT resistant colonies (40,000 seeded cells)” value with DPH2 gene [2] (MCF7, individual samples A-D) worked out at 0.
